In the supplement of paper PMC12137928:

Tested on: HCT116
Conditions: 72 h
Method in brief: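 IC50 and maximal efficacy were derived from four-parameter Hill curve fits. The underlying CellTiter-Glo luminescence was scaled so that vehicle equals 0% and positive control equals -100%, and was then pattern-corrected. HCT116 cells had been seeded in 1536-well plates at 250 per well.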

With `CCCCOCCOC(=O)c1cccnc1` [Nicoboxil] the IC50 cell viability (ICRF193 0 nM) was > 45.8 µM and the IC50 cell viability (ICRF193 200 nM) was > 45.8 µM.

In the case of `O=C(OCC1(COC(=O)c2cccnc2)CCCC(COC(=O)c2cccnc2)(COC(=O)c2cccnc2)C1O)c1cccnc1` [Nicomolol], the IC50 cell viability (ICRF193 0 nM) is reported as > 45.8 µM and the IC50 cell viability (ICRF193 200 nM) is reported as > 45.8 µM.

For `O=C(NCCO[N+](=O)[O-])c1cccnc1` [Nicorandil], the IC50 cell viability (ICRF193 0 nM) was > 45.8 µM and the IC50 cell viability (ICRF193 200 nM) was > 45.8 µM.

`Cn1c(NCCN(CCO)CCCc2ccc([N+](=O)[O-])cc2)cc(=O)n(C)c1=O` [Nifekalant] was tested, and the IC50 cell viability (ICRF193 0 nM) was > 45.8 µM and the IC50 cell viability (ICRF193 200 nM) was > 45.8 µM.

In the case of `Cc1c(NC(=O)c2cccnc2)c(=O)n(-c2ccccc2)n1C` [Nifenazone], the IC50 cell viability (ICRF193 0 nM) is reported as > 45.8 µM and the IC50 cell viability (ICRF193 200 nM) is reported as > 45.8 µM.

For `O=[N+]([O-])c1ccc(/C=N/O)o1` [Nifuroxime], the IC50 cell viability (ICRF193 0 nM) was > 45.8 µM and the IC50 cell viability (ICRF193 200 nM) was > 45.8 µM.

For `Cc1cn(-c2cc(NC(=O)c3ccc(C)c(Nc4nccc(-c5cccnc5)n4)c3)cc(C(F)(F)F)c2)cn1` [Nilotinib], the IC50 cell viability (ICRF193 0 nM) was > 45.8 µM and the IC50 cell viability (ICRF193 200 nM) was > 45.8 µM.

For `CC1(C)NC(=O)N(c2ccc([N+](=O)[O-])c(C(F)(F)F)c2)C1=O` [Nilutamide], the IC50 cell viability (ICRF193 0 nM) was > 45.8 µM and the IC50 cell viability (ICRF193 200 nM) was > 45.8 µM.

In the case of `COC(=O)C1=C(C#N)NC(C)=C(C(=O)OC(C)C)C1c1cccc([N+](=O)[O-])c1` (centres undefined) [Nilvadipine], the IC50 cell viability (ICRF193 0 nM) is reported as > 45.8 µM and the IC50 cell viability (ICRF193 200 nM) is reported as > 45.8 µM.

With `CS(=O)(=O)Nc1ccc([N+](=O)[O-])cc1Oc1ccccc1` [Nimesulide] the IC50 cell viability (ICRF193 0 nM) was > 45.8 µM and the IC50 cell viability (ICRF193 200 nM) was > 45.8 µM.

`COCCOC(=O)C1=C(C)NC(C)=C(C(=O)OC(C)C)C1c1cccc([N+](=O)[O-])c1` (centres undefined) [Nimodipine] was tested, and the IC50 cell viability (ICRF193 0 nM) was > 45.8 µM and the IC50 cell viability (ICRF193 200 nM) was > 45.8 µM.

`Cc1ncc(CNC(=O)N(CCCl)N=O)c(N)n1` [Nimustine] was tested, and the IC50 cell viability (ICRF193 0 nM) was > 45.8 µM and the IC50 cell viability (ICRF193 200 nM) was > 45.8 µM.

In the case of `O=[N+]([O-])c1ccc([As](=O)(O)O)cc1` [Nitarsone], the IC50 cell viability (ICRF193 0 nM) is reported as > 45.8 µM and the IC50 cell viability (ICRF193 200 nM) is reported as > 45.8 µM.

In the case of `O=C1CCCC(=O)C1C(=O)c1ccc(C(F)(F)F)cc1[N+](=O)[O-]` [Nitisinone], the IC50 cell viability (ICRF193 0 nM) is reported as > 45.8 µM and the IC50 cell viability (ICRF193 200 nM) is reported as > 45.8 µM.

In the case of `CCOC(=O)C1=C(C)NC(C)=C(C(=O)OC)C1c1cccc([N+](=O)[O-])c1` (centres undefined) [Nitrendipine], the IC50 cell viability (ICRF193 0 nM) is reported as > 45.8 µM and the IC50 cell viability (ICRF193 200 nM) is reported as > 45.8 µM.

With `O=[N+]([O-])c1ccccc1` [Nitrobenzene] the IC50 cell viability (ICRF193 0 nM) was > 45.8 µM and the IC50 cell viability (ICRF193 200 nM) was > 45.8 µM.

In the case of `O=C1CN(/N=C/c2ccc([N+](=O)[O-])o2)C(=O)N1` [Nitrofurantoin], the IC50 cell viability (ICRF193 0 nM) is reported as > 45.8 µM and the IC50 cell viability (ICRF193 200 nM) is reported as > 45.8 µM.

`NC(=O)N/N=C/c1ccc([N+](=O)[O-])o1` [Nitrofurazone] was tested, and the IC50 cell viability (ICRF193 0 nM) was > 45.8 µM and the IC50 cell viability (ICRF193 200 nM) was > 45.8 µM.

With `NC(=O)c1cc([N+](=O)[O-])cc([N+](=O)[O-])c1` [Nitromide] the IC50 cell viability (ICRF193 0 nM) was > 45.8 µM and the IC50 cell viability (ICRF193 200 nM) was > 45.8 µM.

`CNC(=C[N+](=O)[O-])NCCSCc1csc(CN(C)C)n1` [Nizatidine] was tested, and the IC50 cell viability (ICRF193 0 nM) was > 45.8 µM and the IC50 cell viability (ICRF193 200 nM) was > 45.8 µM.

`CCN(CC)Cc1nccn1-c1ccc([N+](=O)[O-])cc1C(=O)c1ccccc1Cl` [Nizofenone] was tested, and the IC50 cell viability (ICRF193 0 nM) was > 45.8 µM and the IC50 cell viability (ICRF193 200 nM) was > 45.8 µM.

For `CC(=O)O[C@]1(C(C)=O)CC[C@H]2[C@@H]3C=C(C)C4=CC(=O)CC[C@@H]4[C@H]3CC[C@@]21C` [Nomegestrol acetate], the IC50 cell viability (ICRF193 0 nM) was > 45.8 µM and the IC50 cell viability (ICRF193 200 nM) was > 45.8 µM.

`O=C(O)CCCCCCCC(=O)O` [Nonanedioic acid] was tested, and the IC50 cell viability (ICRF193 0 nM) was > 45.8 µM and the IC50 cell viability (ICRF193 200 nM) was > 45.8 µM.

In the case of `CCCCCCCCC(=O)NCc1ccc(O)c(OC)c1` [Nonivamide], the IC50 cell viability (ICRF193 0 nM) is reported as > 45.8 µM and the IC50 cell viability (ICRF193 200 nM) is reported as > 45.8 µM.

`NC[C@H](O)c1ccc(O)c(O)c1` [Noradrenaline bitartrate monohydrate] was tested, and the IC50 cell viability (ICRF193 0 nM) was > 45.8 µM and the IC50 cell viability (ICRF193 200 nM) was > 45.8 µM.

`C#C[C@]1(O)CC[C@H]2[C@@H]3CCC4=CC(=O)CC[C@@H]4[C@H]3CC[C@@]21C` [Norethindrone] was tested, and the IC50 cell viability (ICRF193 0 nM) was > 45.8 µM and the IC50 cell viability (ICRF193 200 nM) was > 45.8 µM.

In the case of `CCn1cc(C(=O)O)c(=O)c2cc(F)c(N3CCNCC3)cc21` [Norfloxacin], the IC50 cell viability (ICRF193 0 nM) is reported as > 45.8 µM and the IC50 cell viability (ICRF193 200 nM) is reported as > 45.8 µM.
